Source: article PMC4468940, “Glucose-tolerant β-glucosidase retrieved from a Kusaya gravy metagenome” (Frontiers in Microbiology, 2015)

Legend:
[1] = tested on: T1, Ks5A7; experiment: released glucose, Amplex Red glucose oxidase assay; assay type: biochemical, metagenome (uncultured bacterium, Kusaya gravy); conditions: McIlvaine buffer pH 5.5, 45°C
T1 construct: full length, 452 aa, 52,509 Da (53,573 Da tagged), C-terminal 6xHis tag (pET29b, primer-encoded LE linker) kept; E. coli Rosetta (DE3); ~160 kDa by gel filtration; GH1; N-terminus from primer MMKFNENFVWG, C-terminus IEENGENL; silent NdeI site removal
Excerpt: released glucose, Amplex Red glucose oxidase assay on Ks5A7

[2] = tested on: T1, Ks5A7; experiment: p-nitrophenol release, […] nm, initial rates; assay type: biochemical, metagenome (uncultured bacterium, Kusaya gravy); conditions: McIlvaine buffer pH 5.5, 45°C, no glucose added

Row | Structure (SMILES) | Km [1] | Km [2]
1 | OC[C@H]1O[C@@H](O[C@H]2[C@H](O)[C@@H](O)C(O)O[C@@H]2CO)[C@H](O)[C@@H](O)[C@@H]1O (stereo partly drawn) [Cellobiose] | 358 ± 55 µM | –
2 | OC[C@H]1O[C@@H](O[C@H]2[C@H](O)[C@@H](O)[C@H](O[C@H]3[C@H](O)[C@@H](O)[C@H](O[C@H]4[C@H](O)[C@@H](O)C(O)O[C@@H]4CO)O[C@@H]3CO)O[C@@H]2CO)[C@H](O)[C@@H](O)[C@@H]1O (stereo partly drawn) [Cellotetraose] | 160 ± 12 µM | –
3 | C[C@H]1O[C@@H](Oc2ccc([N+](=O)[O-])cc2)[C@H](O)[C@@H](O)[C@H]1O [pNPFuc] | – | 152 ± 4 µM
4 | OC[C@H]1O[C@@H](O[C@H]2[C@H](O)[C@@H](O)[C@H](O[C@H]3[C@H](O)[C@@H](O)C(O)O[C@@H]3CO)O[C@@H]2CO)[C@H](O)[C@@H](O)[C@@H]1O (stereo partly drawn) [Cellotriose] | 163 ± 16 µM | –
5 | OC[C@H]1O[C@@H](O[C@H]2[C@H](O)[C@@H](O)[C@H](O[C@H]3[C@H](O)[C@@H](O)[C@H](O[C@H]4[C@H](O)[C@@H](O)[C@H](O[C@H]5[C@H](O)[C@@H](O)C(O)O[C@@H]5CO)O[C@@H]4CO)O[C@@H]3CO)O[C@@H]2CO)[C@H](O)[C@@H](O)[C@@H]1O (stereo partly drawn) [Cellopentaose] | 132 ± 11 µM | –
6 | O=[N+]([O-])c1ccc(O[C@@H]2O[C@H](CO)[C@@H](O)[C@H](O)[C@H]2O)cc1 [pNPGlc] | – | 78 ± 2 µM
